Reference: US10844044B2 (Vanderbilt University, priority 2018, dated 2020)
Read-outs that look alike come from different tables or passages of the source.

Columns and labels:
[1] = test system: MV4:11 human cancer cell lines; test: Anti-proliferative activity, CellTiter-Glo viability assay, 7 day protocol; format: cell-based; conditions: Homo sapiens, MV4:11 cells, 7 day incubation, read-out: GI50 on cellular proliferation of MV4:11 human cancer cell lines
Procedure: Viability assays are performed by dispensing […] into each well of an opaque 384-well plate and adding compounds at the indicated concentrations in a final volume of 32 μL and a final concentration of DMSO of 0.1% for all samples. After a set incubation period, 7 day protocol, the viability of cells in each well is assessed using the CellTiter-Glo assay (Promega), read on a GloMax 96 Microplane Luminometer (Promega). Serial dilutions of each cell type are included in all assays to generate standard curves and determine assay measurements are taken within the dynamic range of the instrument. GI50 values are calculated based on three biological replicates, each with three technical replicates. Data are expressed as mean plus/minus S.E.M.

WDR5 = WDR5 (Homo sapiens (Human), UniProt P61964); test: TR-FRET binding assay (displacement of 10mer-Thr-FAM probe from WDR5); conditions: read-out: Ki for Inhibition of WDR5 by TR-FRET assay; TR-FRET, 10mer-Thr-FAM probe, WDR5-His tag 2 nM, pH 7.0

| SMILES | GI50 ([1]; MV4-11, 168 h) [µM] | Ki (WDR5) [µM] | GI50 ([1]; 168 h) [µM] |
| --- | --- | --- | --- |
| CCn1cc(-c2cc(Cn3ccn(C)c3=N)cc(C(=O)NCc3ccc(F)c(C)c3)c2)c(C(F)(F)F)n1 [Example 198, 3-(1-Ethyl-3-(trifluoromethyl)-1H-pyrazol-4-yl)-N-(4-fluoro-3-methylbenzyl)-5-((2-imino-3-methyl-2,3-dihydro-1H-imidazol-1-yl)methyl)benzamide] | < 0.1 | < 0.0001 | – |
| CCn1cc(-c2cc(Cn3ccn(C4CC4)c3=N)cc(C(=O)N[C@H](c3ccc(F)c(F)c3)C3CC3)c2)c(C(F)(F)F)n1 [Example 190, (S)—N-(Cyclopropyl(3,4-difluorophenyl)methyl)-3-((3-cyclopropyl-2-imino-2,3-dihydro-1H-imidazol-1-yl)methyl)-5-(1-ethyl-3-(trifluoromethyl)-1H-pyrazol-4-yl)benzamide] | 0.19 | 0.00011 | – |
| Cc1cc(C(C)NC(=O)c2cc(Cn3ccn(C)c3=N)cc(-c3ccc(F)cc3C)n2)ncc1Cl (stereo not drawn) [Example 55, N-(1-(5-Chloro-4-methylpyridin-2-yl)ethyl)-6-(4-fluoro-2-methylphenyl)-4-((2-imino-3-methyl-2,3-dihydro-1H-imidazol-1-yl)methyl)picolinamide] | 1.8 | 0.0018 | – |
| Cc1ccnc([C@@H](NC(=O)c2cc(Cn3ccn(C)c3=N)cc(-c3cccnc3C(F)(F)F)c2F)C2CC2)c1 [Example 132, (S)—N-(Cyclopropyl(4-methylpyridin-2-yl)methyl)-2-fluoro-5-((2-imino-3-methyl-2,3-dihydro-1H-imidazol-1-yl)methyl)-3-(2-(trifluoromethyl)pyridin-3-yl)benzamide] | 0.61 | 0.00013 | – |
| Cc1cc([C@@H](NC(=O)c2cc(Cn3ccoc3=N)cc(-c3ccc(F)cc3Cl)c2)C2CC2)ccc1F [Example 248, (S)-2′-Chloro-N-(cyclopropyl(4-fluoro-3-methylphenyl)methyl)-4′-fluoro-5-((2-iminooxazol-3(2H)-yl)methyl)-[1,1′-biphenyl]-3-carboxamide] | 0.12 | < 0.0001 | – |
| Cc1ccnc([C@@H](NC(=O)c2cc(Cn3ccoc3=N)cc(-c3ccc(F)cc3C)c2)C2CC2)c1 [Example 247, (S)—N-(Cyclopropyl(4-methylpyridin-2-yl)methyl)-4′-fluoro-5-((2-iminooxazol-3(2H)-yl)methyl)-2′-methyl-[1,1′-biphenyl]-3-carboxamide] | 0.27 | 0.00014 | – |
| Cc1ccnc(C(NC(=O)c2cc(Cn3ccn(C)c3=N)cc(-c3ncccc3C(F)(F)F)c2)C2CC2)c1 (stereo not drawn) [Example 364, N-(Cyclopropyl(4-methylpyridin-2-yl)methyl)-3-((2-imino-3-methyl-2,3-dihydro-1H-imidazol-1-yl)methyl)-5-(3-(trifluoromethyl)pyridin-2-yl)benzamide] | 7.8 | 0.0043 | – |
| Cc1ccnc(C(NC(=O)c2cc(Cn3ccn(C)c3=N)cc(-c3ncc(F)cc3C)c2)C2CC2)c1 (stereo not drawn) [Example 69] | 5.1 | 0.0024 | – |
| Cc1cc([C@@H](NC(=O)c2cc(Cn3ccsc3=N)cc(-c3cn(C)nc3C(F)(F)F)c2)C2CC2)ccc1F [Example 321, (S)—N-(Cyclopropyl(4-fluoro-3-methylphenyl)methyl)-3-((2-iminothiazol-3(2H)-yl)methyl)-5-(1-methyl-3-(trifluoromethyl)-1H-pyrazol-4-yl)benzamide] | < 0.1 | < 0.0001 | – |
| CCOc1c(C(=O)N[C@@H](C)c2ccc(F)c(C)c2)cc(Cn2ccn(C)c2=N)cc1-c1cn(C)nc1C(F)(F)F [Example 209, (S)-2-Ethoxy-N-(1-(4-fluoro-3-methylphenyl)ethyl)-5-((2-imino-3-methyl-2,3-dihydro-1H-imidazol-1-yl)methyl)-3-(1-methyl-3-(trifluoromethyl)-1H-pyrazol-4-yl)benzamide] | < 0.1 | < 0.0001 | – |
| Cc1cc([C@@H](NC(=O)c2cc(Cn3ccn(C)c3=N)cc(OC(F)(F)F)c2)C2CC2)ccc1F [Example 179, (S)—N-(Cyclopropyl(4=fluoro-3-methylphenyl)methyl)-3-((2-imino-3-methyl-2,3-dihydro-1H-imidazol-1-yl)methyl)-5-(trifluoromethoxy)benzamide] | 0.23 | < 0.0001 | – |
| CCn1cc(-c2cc(Cn3ccn(C)c3=N)cc(C(=O)NCc3ccc(=O)n(C)c3)c2)c(C(F)(F)F)n1 [Example 200, 3-(1-Ethyl-3-(trifluoromethyl)-1H-pyrazol-4-yl)-5-((2-imino-3-methyl-2,3-dihydro-1H-imidazol-1-yl)methyl)-N-((1-methyl-6-oxo-1,6-dihydropyridin-3-yl)methyl)benzamide] | 0.71 | 0.00015 | – |
| Cc1cc(CNC(=O)c2cc(Cn3ccn(C)c3=N)cc(-c3c(C)cc(F)cc3F)c2)ccc1Cl [Example 53, N-(4-Chloro-3-methylbenzyl)-2′,4′-difluoro-5-((2-imino-3-methyl-2,3-dihydro-1H-imidazol-1-yl)methyl)-6′-methyl-[1,1′-biphenyl]-3-carboxamide] | 0.58 | 0.00056 | – |
| Cc1cc([C@@H](NC(=O)c2cc(Cn3ccoc3=N)cc(-c3ccc(F)cc3C)c2)C2CC2)ccc1F [Example 232, (S)—N-(Cyclopropyl(4-fluoro-3-methylphenyl)methyl)-4′-fluoro-5-((2-iminooxazol-3(2H)-yl)methyl)-2′-methyl-[1,1′-biphenyl]-3-carboxamide] | 0.21 | – | – |
| Cc1cc(F)ccc1-c1cc(Cn2ccn(C)c2=N)cc(C(=O)N[C@@H](C)c2ccc(F)c(C(F)(F)F)c2)c1 [Example 31, (S)-4′-Fluoro-N-(1-(4-fluoro-3-(trifluoromethyl)phenyl)ethyl)-5-((2-imino-3-methyl-2,3-dihydro-1H-imidazol-1-yl)methyl)-2′-methyl-[1,1′-biphenyl]-3-carboxamide] | 0.3 | – | – |
| Cc1cc(F)ccc1-c1cc(Cn2ccn(C)c2=N)cc(C(=O)NCc2ccc(Cl)c(Cl)c2)n1 [Example 5, N-(3,4-dichlorobenzyl)-6-(4-fluoro-2-methylphenyl)-4-((2-imino-3-methyl-2,3-dihydro-1H-imidazol-1-yl)methyl)picolinamide] | 0.24 | – | – |
| COc1cnccc1-c1cc(Cn2ccn(C)c2=N)cc(C(=O)NCc2ccc(Cl)c(Cl)c2)c1 [Example 23, N-(3,4-Dichlorobenzyl)-3-((2-imino-3-methyl-2,3-dihydro-1H-imidazol-1-yl)methyl)-5-(3-methoxypyridin-4-yl)benzamide] | 6.2 | – | – |
| Cc1cc([C@@H](NC(=O)c2cc(CN3CCOC3=N)cc(-c3cccnc3C(F)(F)F)c2)C2CC2)ccc1F [Example 253, (S)-(Cyclopropyl(4-fluoro-3-methylphenyl)methyl)-3-((2-iminooxazolidin-3-yl)methyl)-5-(2-(trifluoromethyl)pyridin-3-yl)benzamide] | < 0.1 | – | – |
| Cc1cc(-c2cc(Cn3ccn(C)c3=N)cc(C(=O)NCc3ccc(Cl)c(Cl)c3)c2)ccn1 [Example 22, N-(3,4-Dichlorobenzyl)-3-((2-imino-3-methyl-2,3-dihydro-1H-imidazol-1-yl)methyl)-5-(2-methylpyridin-4-yl)benzamide] | 14 | – | – |
| Cc1cc(CNC(=O)c2cc(Cn3ccn(C)c3=N)cc(-c3cccnc3C(F)(F)F)c2)ccc1Cl [Example 76, N-(4-Chloro-3-methylbenzyl)-3-((2-imin-3-methyl-2,3-dihydro-1H-imidazol-1-yl)methyl)-5-(2-(trifluoromethyl)pyridin-3-yl)benzamide] | 0.26 | – | – |
| Cc1cc([C@@H](NC(=O)c2cc(Cn3ccn(C)c3=N)cc(-c3ncc(F)cc3C(F)(F)F)c2)C2CC2)ccc1F [Example 72, (S)—N-(Cyclopropyl(4-fluoro-3-methylphenyl)methyl)-3-(5-fluoro-3-(trifluoromethyl)pyridin-2-yl)-5-((2-imino-3-methyl-2,3-dihydro-1H-imidazol-1-yl)methyl)benzamide] | 0.18 | – | – |
| Cc1cc(CNC(=O)c2cc(Cn3ccn(C)c3=N)cc(-c3c(C)cc(F)cc3C)c2)ccc1Cl [Example 59] | – | – | 0.46 |
| Cn1nccc1-c1cc(Cn2ccn(C)c2=N)cc(C(=O)NCc2ccc(Cl)c(Cl)c2)c1 [Example 26, N-(3,4-Dichlorobenzyl)-3-((2-imino-3-methyl-2,3-dihydro-1H-imidazol-1-yl)methyl)-5-(1-methyl-1H-pyrazol-5-yl)benzamide] | 0.79 | – | – |
| Cc1cc(CNC(=O)c2cc(Cn3ccn(C)c3=N)cc(-c3ncc(F)cc3C)c2)ccc1Cl [Example 70, N-(4-Chloro-3-methylbenzyl)-3-(5-fluoro-3-methylpyridin-2-yl)-5-((2-imino-3-methyl-2,3-dihydro-1H-imidazol-1-yl)methyl)benzamide] | 2.4 | – | – |
| Cc1cc([C@@H](NC(=O)c2cc(Cn3ccn(C)c3=N)cc(-c3ccc(F)cc3OC(F)F)c2)C2CC2)ccc1F [Example 73, (S)—N-(cyclopropyl(4-fluoro-3-methylphenyl)methyl)-2′-(difluoromethoxy)-4′-fluoro-5-((2-imino-3-methyl-2,3-dihydro-1-imidazol-1-yl)methyl)-[1,1′-biphenyl]-3-carboxamide] | 1.8 | – | – |
| Cc1ccnc(C(NC(=O)c2cc(Cn3ccn(C)c3=N)cc(-c3ncc(F)cc3C(F)(F)F)c2)C2CC2)c1 (stereo not drawn) [Example 75, N-(Cyclopropyl(4-methylpyridin-2-yl)methyl)-3-(5-fluoro-3-(trifluoromethyl)pyridin-2-yl)-5-((2-imino-3-methyl-2,3-dihydro-1H-imidazol-1-yl)methyl)benzamide] | 12 | – | – |
